Marks after values point to notes of the source that are not given here.
Assays:
IL-1RA: IL-1α = assay: Scalp tape strip inflammatory cytokines IL-1RA:IL-1α; assay type: in vivo, human
Experimental: (§1) Subjects are enrolled in a double-blind, randomized study for all test groups and have Baseline and Week 3 measurements of scalp health taken for flaking, itch and scalp health endpoints. Subjects take home a test product(s) and are instructed on use of test products throughout the study. Test products are solubilized in a hydroalcoholic leave-on formulation. Azoxystrobin raw material is sourced from AK Scientific Inc. (Union City, Calif.) as >97% pure. Azoxystrobin scalp treatment is prepared from a slurry of azoxystrobin in ethanol that is formulated to 0.1% (w/v) in a base chassis of 50% ethanol, 0.35% Ultrez 21 (rheology modifier), 0.05% neutrol TE and water (q.s.). […] Biomarkers of scalp health, including biomarkers of inflammation, itch, oxidative stress and barrier integrity are assessed by non-invasive tape strip sampling of the scalp surface to determine therapeutic resolution. All biomarkers are analyzed from D-Squame® scalp tape samples that are collected from the scalp of subjects before and after scalp treatment with either azoxystrobin or vehicle (Baseline, and Week 3 respectively). These are extracted and analyzed according to published methods (International Journal of Dermatology 2011, 50, 102-113, incorporated by reference herein). […] Human inflammatory cytokines are analyzed to evaluate skin irritation and inflammatory processes. […]

human scalp (dandruff) = assay: Self-assessment questionnaire for itch perception; assay type: in vivo
Experimental: Subjects are enrolled in a double-blind, randomized study for all test groups and have Baseline and Week 3 measurements of scalp health taken for flaking, itch and scalp health endpoints. Subjects take home a test product(s) and are instructed on use of test products throughout the study. Test products are solubilized in a hydroalcoholic leave-on formulation. Azoxystrobin raw material is sourced from AK Scientific Inc. (Union City, Calif.) as >97% pure. Azoxystrobin scalp treatment is prepared from a slurry of azoxystrobin in ethanol that is formulated to 0.1% (w/v) in a base chassis of 50% ethanol, 0.35% Ultrez 21 (rheology modifier), 0.05% neutrol TE and water (q.s.). Vehicle scalp treatment is prepared similarly without the addition of azoxystrobin raw material. Subjects apply either azoxystrobin or vehicle scalp treatments daily for 3 weeks. Self-assessment questionnaires for itch perception are administered to each subject at Baseline and Week 3. Itch perception is quantified by each subject as severity of symptoms over the past 24 hours on a 7 point scale: 0=none, 1=slight, 2=slight to moderate, 3=moderate, 4=moderate to severe; 5=severe; 6=very severe.

human serum albumin = assay: Scalp tape strip barrier integrity: human serum albumin; assay type: in vivo
Experimental: Subjects are enrolled in a double-blind, randomized study for all test groups and have Baseline and Week 3 measurements of scalp health taken for flaking, itch and scalp health endpoints. Subjects take home a test product(s) and are instructed on use of test products throughout the study. Test products are solubilized in a hydroalcoholic leave-on formulation. […] Azoxystrobin scalp treatment is prepared from a slurry of azoxystrobin in ethanol that is formulated to 0.1% (w/v) in a base chassis of 50% ethanol, 0.35% Ultrez 21 (rheology modifier), 0.05% neutrol TE and water (q.s.). Vehicle scalp treatment is prepared similarly without the addition of azoxystrobin raw material. Subjects apply either azoxystrobin or vehicle scalp treatments daily for 3 weeks. […] All biomarkers are analyzed from D-Squame® scalp tape samples that are collected from the scalp of subjects before and after scalp treatment with either azoxystrobin or vehicle (Baseline, and Week 3 respectively). […] Data analysis is conducted by standard statistical methods and calculations. […] Biochemical markers of skin/scalp barrier integrity are analyzed to evaluate improvements on barrier health. […] Human skin analytes (keratin 1, keratin 10, human serum albumin) are simultaneously quantified using a 3-plea Human Skin Panel LINCOplex Kit (Millipore Corp.). Soluble protein is measured using the BCA™ Protein Assay Kit. […]

keratin 1, keratin 10 = assay: Scalp tape strip barrier integrity: keratins 1 and 10; assay type: in vivo, human
Experimental: as §1, with “Biochemical markers of skin/scalp barrier integrity” for “Human inflammatory cytokines”, “improvements on barrier health.” for “skin irritation and inflammatory processes.”

[1] = cited from earlier work
[2] = 0.1% leave-on daily, Week 3, scalp tape strips

CO/C=C(/C(=O)OC)c1ccccc1Oc1cc(Oc2ccccc2C#N)ncn1 [Azoxystrobin]
IL-1RA: IL-1α ratio, % Change from Baseline (IL-1RA: IL-1α; [2]): −58.3* % | reduction of Interleukin-1 (IL-1RA: IL-1α) (IL-1RA: IL-1α; compared to a placebo control): 58% | Mean Itch Severity at Week 3 (human scalp (dandruff); 7 point scale 0-6, Common Baseline Severity = 3.1, 0.1% leave-on daily): 1.5* | reduction in itch perception (human scalp (dandruff); compared to a placebo control): 48% | Human Serum Albumin % Change from Baseline (human serum albumin; [2]): −54.1* % | reduction in human serum albumin (HSA) changed from a baseline (human serum albumin; 3 weeks of treatment): 54% | Keratins-1,10 % Change from Baseline (keratin 1, keratin 10; [2]): +86.0* % | increase in keratins 1 and 10 (keratin 1, keratin 10; compared to a placebo control): 86% | solubility in water [1]: low solubility in water

Reference: patent US20220192955A1, “AZOXYSTROBIN EFFICACY IN SCALP HEALTH” (The Procter & Gamble Company, priority 2020, published 2022)
